The results in this text go back to paper PMC7036909, “Discovery of Selective SIRT2 Inhibitors as Therapeutic Agents in B-Cell Lymphoma and Other Malignancies” (Molecules, 2020).

The structures appear in SMILES notation. Values joined by “and” are separate entries in the source; they are usually repeats but may differ in a detail not shown here. Identical values can stand only once.

The subject of assay [1] is Daudi (Burkitt lymphoma) cells. The assay can be described thus: Cell viability (CellTiter-Glo), Daudi. The format is cell-based. The following applies: Homo sapiens, 72 h, cellular ATP, read-out: Daudi LC50. As for the experimental part: (§1) With selective SIRT2 inhibitors in hand, we proceeded to evaluate cytotoxicity of our compounds in Daudi, Raji (Burkitt lymphoma) and OCI-Ly8-LAM-53 (OCI, a representative of several Diffuse Large B-Cell Lymphoma lines; DLBCL) cell lines. Briefly, cells were plated in 96-well plates and treated with inhibitors at desired concentrations for 72 h. Cellular viability was determined by measuring the amount of cellular ATP using CellTiter-Glo assay kit (Promega) and normalized against DMSO-treated controls. […] Selected inhibitors were further evaluated in an expanded panel of cancer cell lines including breast cancer (MCF-7 and MDA-MB231), prostate cancer (PC-3) and glioblastoma multiforme (U-251). […] However, the trend in potency as a function of the structure is consistent with the results obtained against lymphoma cell lines. […] . Cell lines were obtained from ATCC (Manassas, VA, USA) and were grown under standard conditions as recommended. For viability assays, 3000 cells per well were dispensed into 96-well plates and treated with test compounds (final DMSO concentration 0.25%). Cells were incubated with test compounds (or DMSO controls) for 72 h or 5 days as noted at 37 °C in 5% CO2 and viability was determined using the CellTiter-Glo Assay (Promega Corp.) according to manufacturer’s instructions.
On the technique in general: Cellular ATP, detected with luciferase, serves as a proxy for viable cell number.

The test system of assay [2] is Raji (Burkitt lymphoma) cells. The assay can be described thus: Cell viability (CellTiter-Glo), Raji. The format is cell-based. The note with it: Homo sapiens, 72 h, cellular ATP, read-out: Raji LC50. As for the experimental part: as §1
Assay [3] has as its system OCI-Ly8-LAM-53 (OCI, DLBCL) cells. The assay can be described thus: Cell viability (CellTiter-Glo), OCI. The format is cell-based. The following applies: 72 h, cellular ATP; read-out: OCI LC50. As for the experimental part:
as §1

Assay [4] addresses T1, SIRT1 (Homo sapiens, UniProt Q96EB6).
T1 sequence (Q96EB6 1-747): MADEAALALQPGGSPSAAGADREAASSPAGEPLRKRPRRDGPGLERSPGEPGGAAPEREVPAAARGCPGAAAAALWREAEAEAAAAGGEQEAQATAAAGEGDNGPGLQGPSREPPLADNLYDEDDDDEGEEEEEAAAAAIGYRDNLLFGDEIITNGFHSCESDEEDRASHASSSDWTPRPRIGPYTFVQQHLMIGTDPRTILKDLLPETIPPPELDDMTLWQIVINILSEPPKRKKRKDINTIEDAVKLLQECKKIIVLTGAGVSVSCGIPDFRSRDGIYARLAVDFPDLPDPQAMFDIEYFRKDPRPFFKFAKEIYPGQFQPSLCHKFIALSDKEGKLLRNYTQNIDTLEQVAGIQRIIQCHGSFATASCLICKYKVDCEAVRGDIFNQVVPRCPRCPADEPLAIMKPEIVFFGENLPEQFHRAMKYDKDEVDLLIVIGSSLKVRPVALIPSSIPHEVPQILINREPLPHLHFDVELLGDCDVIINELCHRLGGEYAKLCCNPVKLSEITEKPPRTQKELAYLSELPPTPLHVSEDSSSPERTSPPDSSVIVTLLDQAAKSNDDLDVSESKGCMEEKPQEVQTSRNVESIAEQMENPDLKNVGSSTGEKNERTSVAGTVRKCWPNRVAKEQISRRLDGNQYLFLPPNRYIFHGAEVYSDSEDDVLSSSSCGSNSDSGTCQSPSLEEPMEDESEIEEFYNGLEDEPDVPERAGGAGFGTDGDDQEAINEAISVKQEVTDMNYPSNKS
The assay can be described thus: SIRT-Glo enzyme inhibition assay, SIRT1. The note with it: for inhibition at 50 µM: read-out: SIRT1 percentage inhibition at 50 µM compound, 50 µM compound.

Assay [5] has as its target T2, SIRT2 (Homo sapiens, UniProt Q8IXJ6).
T2 sequence (Q8IXJ6 1-389): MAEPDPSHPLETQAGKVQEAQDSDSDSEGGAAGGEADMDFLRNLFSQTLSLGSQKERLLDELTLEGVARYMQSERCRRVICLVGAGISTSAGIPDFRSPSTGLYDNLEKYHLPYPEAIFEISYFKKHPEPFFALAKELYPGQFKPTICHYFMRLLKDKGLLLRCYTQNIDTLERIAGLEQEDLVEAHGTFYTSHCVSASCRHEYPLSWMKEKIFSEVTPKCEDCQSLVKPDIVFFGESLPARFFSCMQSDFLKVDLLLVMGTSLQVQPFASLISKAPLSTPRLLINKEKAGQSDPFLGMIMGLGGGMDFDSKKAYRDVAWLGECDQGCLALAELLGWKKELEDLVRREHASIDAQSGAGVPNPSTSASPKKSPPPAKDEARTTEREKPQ
The assay is described as follows: SIRT-Glo enzyme inhibition assay, SIRT2. The note with it: for IC50: SIRT2 IC50; for inhibition at 50 µM: read-out: SIRT2 percentage inhibition at 50 µM compound, 50 µM compound.
Method: (§2) SIRT1, SIRT2, and SIRT3 were purchased from Cayman Chemical. Enzyme inhibition assays were performed in 96-well black plates using the SIRT-Glo Assay (Promega Corp.) according to the manufacturer’s instructions. Compounds were dissolved in 100% DMSO and to make 5- or 10-mM stock solutions. For initial enzyme inhibition tests, 50 µM of inhibitory concentration was used. […] IC50 values were determined in triplicate and reported values are averages of two independent experiments.

Assay [6] has as its target T3, SIRT3 (Homo sapiens, UniProt Q9NTG7).
T3 sequence (Q9NTG7 1-399): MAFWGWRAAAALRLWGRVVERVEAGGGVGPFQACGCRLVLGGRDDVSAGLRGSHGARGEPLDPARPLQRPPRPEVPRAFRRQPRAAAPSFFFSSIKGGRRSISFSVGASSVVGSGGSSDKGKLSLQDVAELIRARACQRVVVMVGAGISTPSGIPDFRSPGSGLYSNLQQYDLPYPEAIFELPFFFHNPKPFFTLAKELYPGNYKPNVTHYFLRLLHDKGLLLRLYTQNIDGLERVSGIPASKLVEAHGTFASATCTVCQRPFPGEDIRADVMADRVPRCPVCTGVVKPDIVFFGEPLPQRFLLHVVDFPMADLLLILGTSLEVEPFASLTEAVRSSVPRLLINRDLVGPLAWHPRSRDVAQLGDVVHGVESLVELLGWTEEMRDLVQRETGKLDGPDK
The assay can be described thus: SIRT-Glo enzyme inhibition assay, SIRT3. The following applies: for inhibition at 50 µM: read-out: SIRT3 percentage inhibition at 50 µM compound, 50 µM compound.
Method: as §2

Assay [7] relates to U-251 glioblastoma multiforme cells. The assay is described as follows: Cell viability (CellTiter-Glo), U-251. The following applies: Homo sapiens, cellular ATP, read-out: U251 LC50. The format is cell-based. As for the experimental part:
as §1

Assay [8] deals with OCI DLBCL cells. The assay can be described thus: Annexin V staining assay. The note with it: 5 µM.
Method: OCI DLBCL cells were treated with 56 for 24 h. Cells were lysed and analyzed by western blot assay for cleaved poly-ADP-ribose polymerase (PARP), a well-accepted apoptosis marker [42] (Abcam, Cambridge, UK).

What is called inhibition is the share of the control response that was lost under treatment. What is called IC50 is the concentration at which inhibition is half-maximal.

On to `NC(=O)C(Cc1c(O)ccc2cc(Br)ccc12)C(=O)c1ccc(Cl)cc1` (stereo not shown) [Compound 19, 2-[(6-Bromo-2-hydroxynaphthalen-1-yl)methyl]-3-(4-chlorophenyl)-3-oxopropanamide], for which the CC50 in assay [1] is 5 µM; in assay [2], 7.3 µM; in assay [3], 8.2 µM. The inhibition at 50 µM in assay [4] was determined as 0%; in assay [5], 95%; in assay [6] it was 30%. The IC50 in assay [5] was 2.79 µM and 2.8 µM.
Take `NC(=O)C(Cc1c(O)ccc2cc(Br)ccc12)C(=O)c1ccc(Br)cc1` (stereo not shown) [Compound 22, 2-[(6-Bromo-2-hydroxynaphthalen-1-yl)methyl]-3-(4-bromo)-3-oxopropanamide]: the CC50 in assay [1] is 7 µM; in assay [2], 7.8 µM; in assay [3] it was 1.6 µM. The values for the inhibition at 50 µM in assay [4], in assay [5] and in assay [6] were 7%, 93% and 42%, respectively. This compound also gave an IC50 in assay [5] of 2.5 µM.
As to `CNC(=O)C(Cc1c(O)ccc2cc(Br)ccc12)C(=O)c1ccc(C(F)(F)F)cc1` (stereo not shown) [Compound 33, 2-[(6-Bromo-2-hydroxynaphthalen-1-yl)methyl]-N-methyl-3-oxo-3-[4-(trifluoromethyl)phenyl]propenamide], the CC50 in assay [1] is 14.5 µM; in assay [2] it was 18.5 µM; in assay [3] it was 16.4 µM. This compound came in with an IC50 in assay [5] of 0.59 µM. Moreover, the inhibition at 50 µM in assay [5] was 97%; in assay [6] it was 6%.
As for `O=C(NCCCO)C(Cc1c(O)ccc2cc(Br)ccc12)C(=O)c1cccc(Br)c1` (stereo not shown) [Compound 37, 2-[(6-Bromo-2-hydroxynaphthalen-1-yl)methyl]-3-(3-bromophenyl)-N-(3-hydroxypropyl)-3-oxopropanamide], the inhibition at 50 µM in assay [4] came to 28%; in assay [5] it was 86%; in assay [6], 46%. The compound also yielded an IC50 in assay [5] of 7.62 µM.
As for `NC(=O)CCNC(=O)C(Cc1c(O)ccc2cc(Br)ccc12)C(=O)c1cccc(Br)c1` (stereo not shown) [Compound 43, 2-[(6-Bromo-2-hydroxynaphthalen-1-yl)methyl]-3-(3-bromophenyl)-N-(2-carbamoylethyl)-3-oxopropanamide], the values for the CC50 in assay [1] and in assay [2] were 15.8 µM and 19.4 µM, respectively. In addition, the inhibition at 50 µM was 0% in assay [4], 89% in assay [5] and 20% in assay [6]. In assay [5], this compound came in with an IC50 of 0.96 µM.
On to `O=C(NCCO)C(Cc1c(O)ccc2cc(Br)ccc12)C(=O)c1ccc(Cl)cc1` (stereo not shown) [Compound 47, 2-[(6-Bromo-2-hydroxynaphthalen-1-yl)methyl]-3-(4-chlorophenyl)-N-(2-hydroxyethyl)-3-oxopropanamide], for which the figures for the CC50 in assay [2] and in assay [3] were 20.2 µM and 9.7 µM, respectively. Besides, the results for the inhibition at 50 µM in assay [4], in assay [5] and in assay [6] were 0%, 98% and 5%, respectively. The IC50 in assay [5] stood at 0.96 µM.
Take `NC(=O)CCNC(=O)C(Cc1c(O)ccc2cc(Br)ccc12)C(=O)c1ccc(Cl)cc1` (stereo not shown) [Compound 50, 2-[(6-Bromo-2-hydroxynaphthalen-1-yl)methyl]-N-(2-carbamoylethyl)-3-(4-chlorophenyl)-3-oxopropanamide]: the CC50 was determined as 19.9 µM in assay [2] and 11.7 µM in assay [3]. Besides, the inhibition at 50 µM in assay [4] was determined as 4%; in assay [5], 99%; in assay [6], 17%. For the same compound, the IC50 in assay [5] stood at 0.65 µM.
On to `NC(=O)CCNC(=O)C(Cc1c(O)ccc2cc(Br)ccc12)C(=O)c1ccc(Br)cc1` (stereo not shown) [Compound 51, 2-[(6-Bromo-2-hydroxynaphthalen-1-yl)methyl]-3-(4-bromophenyl)-N-(2-carbamoylethyl)-3-oxopropanamide], for which the CC50 turned out to be 19.2 µM in assay [1], 16.7 µM in assay [2], 10.2 µM in assay [3] and 25.9 µM in assay [7]. The results for the inhibition at 50 µM in assay [4], in assay [5] and in assay [6] were 20%, 98% and 14%, respectively. This compound also came in with a 50% inhibitory concentration (IC50) in assay [5] of 0.58 µM.
Turning to `NC(=O)CCNC(=O)C(Cc1c(O)ccc2cc(Br)ccc12)C(=O)c1ccc(C(F)(F)F)cc1` (stereo not shown) [Compound 52, 2-[(6-Bromo-2-hydroxynaphthalen-1-yl)methyl]-N-(2-carbamoylethyl)-3-oxo-3-[4-(trifluoromethyl)phenyl]-propenamide], the figures for the CC50 in assay [1], in assay [2] and in assay [3] were 28.2 µM, 19.4 µM and 25.5 µM, respectively. For the same compound, the inhibition at 50 µM is 0% in assay [4], 93% in assay [5] and 21% in assay [6]. This compound came in with an IC50 in assay [5] of 0.65 µM.
For `NC(=O)CCNC(=O)C(Cc1c(O)ccc2cc(Br)ccc12)C(=O)c1cccc(C(F)(F)F)c1` (stereo not shown) [Compound 53], the “selectivity for SIRT2 over SIRT1” value in assay [4] (SIRT2 versus SIRT1) is given as > 400 fold. Moreover, the inhibition at 50 µM in assay [4] stood at 8%; in assay [5], 91%; in assay [6], 16%. The half-maximal inhibitory concentration (IC50) in assay [5] came out at 1.57 µM. For the same compound, the “selectivity for SIRT2 over SIRT3” value in assay [6] (SIRT2 versus SIRT3) is > 800 fold.
Turning to `COc1cc([C@@H]2c3cc4c(cc3[C@@H](O[C@@H]3O[C@@H]5CO[C@@H](C)O[C@H]5[C@H](O)[C@H]3O)[C@H]3COC(=O)[C@H]23)OCO4)cc(OC)c1O` [Etoposide, etoposide, reference compound], in assay [8], the “Q1 (necrotic cell death) cell population” value stood at 5.1%, the “Q2 (apoptotic cells) cell population” value turned out to be 59.8%, the Q3 cell population was determined as 26.8% and the Q4 cell population was 8.3%.
